# Measurements taken from PMC7179119, “A New Positron Emission Tomography Probe for Orexin Receptors Neuroimaging” (Molecules, 2020).
# Like-named read-outs stand apart in the source and are kept apart here.
# How the values were obtained:
# Test in all cases: PDSP off-target radioligand binding assay
# [1] = biological target: SERT (Homo sapiens, UniProt P31645)
# Protocol: (§1) Table S1. Off binding data of CW24.
# (§2) The off-target binding assays were performed at PDSP with their standard protocol (https://pdspdb.unc.edu/pdspWeb/content/UNC-CH%20Protocol%20Book.pdf). In radioligand binding assays, CW24 was tested at a single concentration (10 µM) and in quadruplicate in 96-well plates. The binding assays were carried out in a final of volume of 125 µl per well in appropriate binding buffers. The hot ligand concentration is usually at a concentration close to the Kd (unless otherwise indicated). Total binding and nonspecific binding are determined in the absence and presence of 10 µM of the appropriate reference compound, respectively. In brief, plates are usually incubated at room temperature and in the dark for 90 mins. Reactions are stopped by vacuum filtration onto 0.3% polyethyleneimine (PEI) soaked 96-well filter mats using a 96-well Filtermate harvester, followed by three washes with cold wash buffers (for details, see Tables 2 to 24). Scintillation cocktail is then melted onto the microwave-dried filters on a hot plate and radioactivity is counted in a Microbeta counter.
# (§3) Receptor % Inhibition 1 % Inhibition 2 % Inhibition 3 % Inhibition 4 Mean±SD %
# [2] = biological target: H2 (Homo sapiens, UniProt P25021)
# Sequence of H2 (P25021 whole entry): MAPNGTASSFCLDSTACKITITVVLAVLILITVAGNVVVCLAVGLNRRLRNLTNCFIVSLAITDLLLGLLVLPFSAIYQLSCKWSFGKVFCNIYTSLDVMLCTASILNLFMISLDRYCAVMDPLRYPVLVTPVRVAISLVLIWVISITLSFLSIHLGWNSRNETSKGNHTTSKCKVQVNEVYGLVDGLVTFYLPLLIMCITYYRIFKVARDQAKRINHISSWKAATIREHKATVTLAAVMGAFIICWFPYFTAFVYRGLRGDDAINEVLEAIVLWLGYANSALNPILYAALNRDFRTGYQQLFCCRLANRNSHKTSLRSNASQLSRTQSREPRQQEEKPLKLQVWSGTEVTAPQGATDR
# Protocol: as §1, §2, §3
# [3] = biological target: T1, 5-HT2A (Homo sapiens, UniProt P28223)
# T1 construct: NIMH PDSP
# T1 sequence (P28223 whole entry, species assumed): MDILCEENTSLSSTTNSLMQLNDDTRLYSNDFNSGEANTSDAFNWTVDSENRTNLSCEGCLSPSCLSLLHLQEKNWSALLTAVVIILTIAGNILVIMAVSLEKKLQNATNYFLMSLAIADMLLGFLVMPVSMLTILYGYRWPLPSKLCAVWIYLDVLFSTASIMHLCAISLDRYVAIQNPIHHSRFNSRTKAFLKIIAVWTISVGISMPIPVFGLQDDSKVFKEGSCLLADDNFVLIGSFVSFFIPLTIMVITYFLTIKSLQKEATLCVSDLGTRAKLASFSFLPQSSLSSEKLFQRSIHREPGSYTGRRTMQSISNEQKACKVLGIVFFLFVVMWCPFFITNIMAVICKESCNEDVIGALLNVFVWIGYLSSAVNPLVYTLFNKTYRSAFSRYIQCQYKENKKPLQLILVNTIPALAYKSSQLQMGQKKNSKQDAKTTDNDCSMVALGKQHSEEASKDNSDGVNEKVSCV
# Protocol: as §1, §2, §3
# [4] = biological target: M3 (Homo sapiens, UniProt P20309)
# Sequence of M3 (P20309 whole entry): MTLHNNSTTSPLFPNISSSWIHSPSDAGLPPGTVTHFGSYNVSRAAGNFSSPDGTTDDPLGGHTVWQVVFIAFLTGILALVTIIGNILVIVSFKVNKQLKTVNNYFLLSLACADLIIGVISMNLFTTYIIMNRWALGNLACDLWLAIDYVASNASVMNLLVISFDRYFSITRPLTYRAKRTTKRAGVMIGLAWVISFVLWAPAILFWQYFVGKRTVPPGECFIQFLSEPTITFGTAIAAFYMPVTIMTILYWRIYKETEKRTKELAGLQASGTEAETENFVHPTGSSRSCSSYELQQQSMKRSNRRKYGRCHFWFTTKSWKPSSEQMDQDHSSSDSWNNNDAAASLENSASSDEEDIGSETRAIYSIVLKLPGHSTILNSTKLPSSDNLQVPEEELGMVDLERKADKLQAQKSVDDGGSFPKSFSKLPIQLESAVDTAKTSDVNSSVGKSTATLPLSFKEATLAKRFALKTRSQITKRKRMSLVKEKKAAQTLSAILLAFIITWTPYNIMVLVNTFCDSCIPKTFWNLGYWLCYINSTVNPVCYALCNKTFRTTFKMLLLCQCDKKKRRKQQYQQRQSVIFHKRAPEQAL
# Protocol: as §1, §2, §3
# [5] = biological target: T2, M5 (Homo sapiens, UniProt P08912)
# T2 sequence (P08912 1-532): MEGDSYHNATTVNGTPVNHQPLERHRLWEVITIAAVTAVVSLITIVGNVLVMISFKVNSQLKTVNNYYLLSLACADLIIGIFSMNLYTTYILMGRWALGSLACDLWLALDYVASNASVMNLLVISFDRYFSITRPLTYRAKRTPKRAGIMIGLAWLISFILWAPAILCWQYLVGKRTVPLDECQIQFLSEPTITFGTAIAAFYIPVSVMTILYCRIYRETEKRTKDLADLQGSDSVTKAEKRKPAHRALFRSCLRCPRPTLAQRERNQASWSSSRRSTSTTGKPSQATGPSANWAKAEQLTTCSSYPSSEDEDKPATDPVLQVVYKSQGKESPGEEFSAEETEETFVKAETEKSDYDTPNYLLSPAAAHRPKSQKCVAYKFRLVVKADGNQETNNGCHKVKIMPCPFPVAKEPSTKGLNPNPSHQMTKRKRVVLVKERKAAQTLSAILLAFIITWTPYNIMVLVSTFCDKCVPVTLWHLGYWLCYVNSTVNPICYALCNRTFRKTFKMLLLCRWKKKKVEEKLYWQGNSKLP
# Protocol: as §1, §2, §3
# [6] = biological target: T3, M1 (Homo sapiens, UniProt P11229)
# T3 sequence (P11229 1-460): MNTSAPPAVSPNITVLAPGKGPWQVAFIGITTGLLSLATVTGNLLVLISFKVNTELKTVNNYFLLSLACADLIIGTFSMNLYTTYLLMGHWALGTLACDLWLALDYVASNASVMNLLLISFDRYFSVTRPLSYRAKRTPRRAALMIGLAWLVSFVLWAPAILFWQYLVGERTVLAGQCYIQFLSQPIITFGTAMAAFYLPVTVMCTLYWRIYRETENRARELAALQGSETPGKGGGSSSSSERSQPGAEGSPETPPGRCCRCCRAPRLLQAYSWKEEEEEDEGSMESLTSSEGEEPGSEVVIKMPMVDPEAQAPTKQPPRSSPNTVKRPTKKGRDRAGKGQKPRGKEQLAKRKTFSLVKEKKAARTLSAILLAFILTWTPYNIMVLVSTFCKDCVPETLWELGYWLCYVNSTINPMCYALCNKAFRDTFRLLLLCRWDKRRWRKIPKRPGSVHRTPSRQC
# Protocol: as §1, §2, §3
# [7] = biological target: T4, M4 (Homo sapiens, UniProt P08173)
# T4 sequence (P08173 1-479): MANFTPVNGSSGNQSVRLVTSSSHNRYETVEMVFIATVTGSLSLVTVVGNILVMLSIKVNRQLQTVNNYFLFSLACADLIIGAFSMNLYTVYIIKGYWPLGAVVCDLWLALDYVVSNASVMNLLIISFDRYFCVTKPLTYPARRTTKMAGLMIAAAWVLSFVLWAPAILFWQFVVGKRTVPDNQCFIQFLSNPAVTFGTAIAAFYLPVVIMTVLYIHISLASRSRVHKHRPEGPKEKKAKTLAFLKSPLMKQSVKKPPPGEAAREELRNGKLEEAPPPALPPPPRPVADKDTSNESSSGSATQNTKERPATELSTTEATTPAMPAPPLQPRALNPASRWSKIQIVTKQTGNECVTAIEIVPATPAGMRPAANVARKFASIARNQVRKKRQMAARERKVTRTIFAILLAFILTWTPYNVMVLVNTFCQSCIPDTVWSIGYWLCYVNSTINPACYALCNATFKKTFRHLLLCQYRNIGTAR
# Protocol: as §1, §2, §3
# [8] = biological target: T5, 5-HT1B (Homo sapiens, UniProt P28222)
# T5 construct: NIMH PDSP
# T5 sequence (P28222 whole entry, species assumed): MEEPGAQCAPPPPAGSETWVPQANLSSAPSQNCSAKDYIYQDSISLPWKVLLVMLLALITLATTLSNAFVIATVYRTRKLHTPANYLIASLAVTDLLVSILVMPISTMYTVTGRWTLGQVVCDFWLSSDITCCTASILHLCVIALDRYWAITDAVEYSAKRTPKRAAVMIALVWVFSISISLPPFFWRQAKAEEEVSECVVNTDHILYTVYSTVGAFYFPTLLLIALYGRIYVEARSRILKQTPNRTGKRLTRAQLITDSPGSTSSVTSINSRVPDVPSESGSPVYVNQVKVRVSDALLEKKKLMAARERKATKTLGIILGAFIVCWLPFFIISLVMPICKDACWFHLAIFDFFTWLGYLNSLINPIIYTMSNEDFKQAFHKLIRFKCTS
# Protocol: as §1, §2, §3
# [9] = quadruplicate, read-out: Mean±SD % inhibition
# [10] = replicate 1, read-out: % Inhibition 1
# [11] = replicate 2, read-out: % Inhibition 2
# [12] = replicate 3, read-out: % Inhibition 3
# [13] = replicate 4, read-out: % Inhibition 4
# Sequence of SERT (P31645 whole entry, species assumed): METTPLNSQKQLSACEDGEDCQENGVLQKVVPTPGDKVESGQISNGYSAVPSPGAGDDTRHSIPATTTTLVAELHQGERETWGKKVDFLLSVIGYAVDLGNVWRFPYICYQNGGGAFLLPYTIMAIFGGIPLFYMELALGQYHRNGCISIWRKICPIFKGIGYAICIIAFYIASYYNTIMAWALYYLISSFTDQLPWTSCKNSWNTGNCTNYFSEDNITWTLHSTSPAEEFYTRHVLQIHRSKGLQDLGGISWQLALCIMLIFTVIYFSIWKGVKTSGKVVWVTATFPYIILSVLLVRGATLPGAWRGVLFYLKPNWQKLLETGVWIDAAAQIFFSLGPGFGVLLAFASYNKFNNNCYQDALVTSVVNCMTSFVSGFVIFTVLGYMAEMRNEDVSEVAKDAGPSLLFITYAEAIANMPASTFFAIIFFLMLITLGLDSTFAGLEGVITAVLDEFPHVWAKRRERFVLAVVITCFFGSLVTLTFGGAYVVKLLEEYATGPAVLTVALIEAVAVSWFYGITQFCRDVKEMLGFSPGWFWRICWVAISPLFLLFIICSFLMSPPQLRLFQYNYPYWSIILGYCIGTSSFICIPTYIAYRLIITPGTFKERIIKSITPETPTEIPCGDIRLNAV
smiles,measurement,setting,value
COc1ccnc(N2CCC3(CCCN(Cc4cn(C)c5ccccc45)C3=O)CC2)n1 [CW24],inhibition at 10 µM,[1]; [9],10.8 ± 11.9%
same,inhibition at 10 µM,[1]; [10],10.6%
same,inhibition at 10 µM,[1]; [11],-3.59%
same,inhibition at 10 µM,[1]; [12],10.6%
same,inhibition at 10 µM,[1]; [13],25.6%
same,inhibition at 10 µM,[2]; [9],24.2 ± 1.43%
same,inhibition at 10 µM,[2]; [10],25.4%
same,inhibition at 10 µM,[2]; [11],24.4%
same,inhibition at 10 µM,[2]; [12],24.8%
same,inhibition at 10 µM,[2]; [13],22.1%
same,inhibition at 10 µM,[3]; [9],12.3 ± 15.4%
same,inhibition at 10 µM,[3]; [10],25.7%
same,inhibition at 10 µM,[3]; [11],20.1%
same,inhibition at 10 µM,[3]; [12],12.8%
same,inhibition at 10 µM,[3]; [13],-9.45%
same,inhibition at 10 µM,[4]; [9],-9.56 ± 5.94%
same,inhibition at 10 µM,[4]; [10],-5.69%
same,inhibition at 10 µM,[4]; [11],-3.65%
same,inhibition at 10 µM,[4]; [12],-12.4%
same,inhibition at 10 µM,[4]; [13],-16.5%
same,inhibition at 10 µM,[5]; [9],27.4 ± 11.1%
same,inhibition at 10 µM,[5]; [10],15.3%
same,inhibition at 10 µM,[5]; [11],31.9%
same,inhibition at 10 µM,[5]; [12],40.5%
same,inhibition at 10 µM,[5]; [13],21.6%
same,inhibition at 10 µM,[6]; [9],0.29 ± 11.9%
same,inhibition at 10 µM,[6]; [10],17.4%
same,inhibition at 10 µM,[6]; [11],-8.79%
same,inhibition at 10 µM,[6]; [12],-6.38%
same,inhibition at 10 µM,[6]; [13],-1.13%
same,inhibition at 10 µM,[7]; [9],-3.86 ± 14.8%
same,inhibition at 10 µM,[7]; [10],0.88%
same,inhibition at 10 µM,[7]; [11],-23.9%
same,inhibition at 10 µM,[7]; [12],-3.92%
same,inhibition at 10 µM,[7]; [13],11.5%
same,inhibition at 10 µM,[8]; [9],13.4 ± 6.1%
same,inhibition at 10 µM,[8]; [10],19%
same,inhibition at 10 µM,[8]; [11],18%
same,inhibition at 10 µM,[8]; [12],6.23%
same,inhibition at 10 µM,[8]; [13],10.4%
